Several values for one entry are separate records, joined by “and”; a condition that tells them apart may be missing. Equal entries are not always repeated.
What was measured:
[1] = tested on: maximal electroshock seizure (MES) model; experiment: Maximal electroshock seizure (MES) model; type: in vivo; settings: mice
Procedure: One of the two test models is the MES seizure model, another is the PTZ-induced seizure model. […] In addition, the administration of this dosage can minimize the impact of other possible side effects such as central inhibition and cardiac toxicity. […] In addition, the tested dose of VPA was 300 mg/kg. It could be seen that all animals in the control group experienced hindlimb stiffness after the electrical stimulation in the MES model. In the treated group, the definition of protection was the reduction or vanishing of the tonic hind limb extension (THLE) in mice. […] The neurological safety of the compounds 2h, 4a, and 4b was evaluated by the rotarod test. In the MES test, the definition of protection was the reduction or vanishing of the THLE in mice. In the PTZ test, the seizures were induced through the subcutaneous administration of PTZ (85 mg/kg). The antiseizure activities of the compounds in the PTZ test were evaluated by comparing the convulsion scores in mice between taking the compounds or not. VPA and PIT were used as positive drugs. To explore the anticonvulsive mechanism, compound 4a (10 mg/kg) was co-injected with RAMH (10 mg/kg). In addition, the THLE was recorded and compared with that of the mice treated by compound 4a alone. The detailed experimental operations in the MES, PTZ, and rotarod tests refer to our previous paper. All the animal experiments were carried out on 4-week-old KunMing male mice weighing from 20 to 25 g. The mice were housed collectively in polycarbonate cages in groups of 30, where they were maintained on a 12 h light/dark cycle in a temperature controlled (25 ± 2 °C) laboratory with free access to food and water. In the MES and PTZ models, seven animals were used in each group. In the rotarod test, three animals were used in each group. Each animal was used only once. All the experiments referring to animals were applied according to the Guide for the Care and Use of Laboratory Animals and were approved by the Medical Ethics Committee of Jinggangshan University, approval number: 220811002.

[2] = tested on: PTZ-induced seizure model; experiment: Pentylenetetrazole (PTZ)-induced seizure model; type: in vivo; settings: mice, 10 mg/kg, i.p.; PTZ 85 mg/kg s.c.
Procedure: One of the two test models is the MES seizure model, another is the PTZ-induced seizure model. […] In addition, the administration of this dosage can minimize the impact of other possible side effects such as central inhibition and cardiac toxicity. […] In addition, the tested dose of VPA was 300 mg/kg. The PTZ model was usually used to screen the antiepileptic candidates for the absence of seizures. In this work, compounds 2a-2i, 3a-3c, and 4a-4b were also evaluated for their antiseizure action in the PTZ model in mice, while using VPA as the positive drug. […] The failure of synthesized compounds in the PTZ model is expected because our previously reported H3R inhibitors were also ineffective in the PTZ model. […] A considerable increase in histamine levels was found in the brain after MES-induced seizures, whereas a tendency toward a decrease in histamine levels was observed after PTZ-kindled convulsions. […] The neurological safety of the compounds 2h, 4a, and 4b was evaluated by the rotarod test. In the MES test, the definition of protection was the reduction or vanishing of the THLE in mice. […] The antiseizure activities of the compounds in the PTZ test were evaluated by comparing the convulsion scores in mice between taking the compounds or not. […] In addition, the THLE was recorded and compared with that of the mice treated by compound 4a alone. […]

[3] = Rotarod test for neurotoxicity; type: in vivo; settings: rotarod test, mice, i.p., three animals per group
Procedure: A rotarod test was carried out to estimate the neurological safety of compounds 2h, 4a, and 4b.
The neurological safety of the compounds 2h, 4a, and 4b was evaluated by the rotarod test. In the MES test, the definition of protection was the reduction or vanishing of the THLE in mice. In the PTZ test, the seizures were induced through the subcutaneous administration of PTZ (85 mg/kg). The antiseizure activities of the compounds in the PTZ test were evaluated by comparing the convulsion scores in mice between taking the compounds or not. VPA and PIT were used as positive drugs. To explore the anticonvulsive mechanism, compound 4a (10 mg/kg) was co-injected with RAMH (10 mg/kg). In addition, the THLE was recorded and compared with that of the mice treated by compound 4a alone. The detailed experimental operations in the MES, PTZ, and rotarod tests refer to our previous paper. All the animal experiments were carried out on 4-week-old KunMing male mice weighing from 20 to 25 g. The mice were housed collectively in polycarbonate cages in groups of 30, where they were maintained on a 12 h light/dark cycle in a temperature controlled (25 ± 2 °C) laboratory with free access to food and water. In the MES and PTZ models, seven animals were used in each group. In the rotarod test, three animals were used in each group. Each animal was used only once. All the experiments referring to animals were applied according to the Guide for the Care and Use of Laboratory Animals and were approved by the Medical Ethics Committee of Jinggangshan University, approval number: 220811002.

[4] = tested on: maximal electroshock seizure (MES) model; parameters: method as in PMID 33325568; settings: 10 mg/kg, previous work; cited from earlier work
[5] = tested on: electrical kindling model of epilepsy; settings: cited from earlier work
photosensitive epilepsy = settings: dose of 30 mg or 60 mg; cited from earlier work
[6] = tested on: PTZ-induced seizure model; parameters: method as in PMID 27853355; settings: Sadek's study; cited from earlier work

Clc1ccc(CCCOCCCN2CCCCC2)cc1 [PIT, Pitolisant, reference compound]
Duration of tonic hind limb extension (THLE), protection in MES model ([1]; 10 mg/kg, i.p., compared to control group): decreased the duration of THLE significantly
THLE induced by MES ([1]; 30 mg/kg): fully abolished the THLE
Dose dependence of protection in MES model ([1]; doses of 3, 10 and 30 mg/kg): dose-dependent antiseizure activity
Protection against seizures induced by PTZ (seizure score) [2]: did not exhibit protection
Neurotoxicity ([3]; 10 mg/kg): 0/3
Neurotoxicity ([3]; 30 mg/kg): 0/3
Neurotoxicity ([3]; 100 mg/kg, 100 mg/kg): no neurotoxicity and 0/3
Antiseizure activity [4]: showed an antiseizure activity
Antiseizure activity in electrical kindling model [5]: powerful antiseizure activity
Effect on photosensitive epilepsy and EEG (photosensitive epilepsy): can inhibit photosensitive epilepsy
Effect in PTZ model [6]: failure

Reference: paper PMC10144301, “Antiseizure Properties of Histamine H3 Receptor Antagonists Belonging 3,4-Dihydroquinolin-2(1H)-Ones” (Molecules, 2023)
